Laboratory results published in patent US8822539B2, “Combination therapies: inhibitors of GABA transaminase and NKCC1” (Children's Medical Center Corporation, priority 2010, dated 2014).

How the values were obtained:
NKCC1 = target: T1, NKCC1 (Rattus norvegicus, UniProt E9PTX9); details: bumetanide 0.1 mg/kg, rats, prior work; cited from earlier work
T1 construct: host or cells: rat brain, in vivo (endogenous protein)
T1 sequence (E9PTX9 1-1203): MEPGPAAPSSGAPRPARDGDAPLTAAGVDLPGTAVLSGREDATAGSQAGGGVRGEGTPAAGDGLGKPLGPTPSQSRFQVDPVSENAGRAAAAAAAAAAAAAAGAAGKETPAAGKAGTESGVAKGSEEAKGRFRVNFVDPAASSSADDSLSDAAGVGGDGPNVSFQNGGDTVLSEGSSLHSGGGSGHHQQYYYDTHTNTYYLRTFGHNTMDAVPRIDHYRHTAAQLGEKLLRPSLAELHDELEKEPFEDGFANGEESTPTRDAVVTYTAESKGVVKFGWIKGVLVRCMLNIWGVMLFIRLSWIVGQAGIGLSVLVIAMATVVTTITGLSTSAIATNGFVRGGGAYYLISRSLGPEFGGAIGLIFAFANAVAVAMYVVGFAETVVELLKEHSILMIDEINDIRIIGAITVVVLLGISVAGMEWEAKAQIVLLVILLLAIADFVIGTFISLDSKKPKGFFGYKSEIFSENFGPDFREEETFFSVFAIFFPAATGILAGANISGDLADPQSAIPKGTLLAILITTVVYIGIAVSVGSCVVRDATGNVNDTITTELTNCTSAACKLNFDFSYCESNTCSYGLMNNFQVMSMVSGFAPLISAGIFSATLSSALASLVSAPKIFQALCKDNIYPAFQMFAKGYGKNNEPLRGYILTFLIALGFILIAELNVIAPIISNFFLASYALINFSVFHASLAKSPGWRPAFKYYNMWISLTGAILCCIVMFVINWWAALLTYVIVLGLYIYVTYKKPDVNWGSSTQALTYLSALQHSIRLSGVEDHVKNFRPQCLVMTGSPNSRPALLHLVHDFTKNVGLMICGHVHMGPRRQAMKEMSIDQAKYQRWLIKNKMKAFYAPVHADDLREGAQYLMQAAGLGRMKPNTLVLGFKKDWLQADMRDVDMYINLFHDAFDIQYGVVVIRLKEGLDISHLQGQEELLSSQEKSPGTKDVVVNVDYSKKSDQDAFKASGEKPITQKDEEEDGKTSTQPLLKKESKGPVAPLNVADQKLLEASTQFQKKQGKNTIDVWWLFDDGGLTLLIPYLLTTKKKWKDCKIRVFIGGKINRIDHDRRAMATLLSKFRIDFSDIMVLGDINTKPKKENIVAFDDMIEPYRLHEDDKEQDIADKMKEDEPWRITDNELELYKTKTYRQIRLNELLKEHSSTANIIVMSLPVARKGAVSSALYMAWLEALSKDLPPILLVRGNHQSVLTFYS

Sprague Dawley rat pups = assay: rodent model of VGB-induced IME (white matter injury and vacuolation); type: in vivo
Procedure: Model of VGB-induced IME. We adhere to the same protocol used by Ovation in recent studies. Sprague Dawley rat pups are treated from postnatal day 4-25 with VBG (50 mg/kg) or vehicle. This is administered by oral gavage to rats starting on PND 4. The single dose of 50 mg/kg was selected on the basis of the previous study in which it produced vacuolar lesions (24, 31). Rats are sacrificed at P25 and perfused with 4% paraformaldehyde. Brains are cryoprotected in sucrose for frozen sectioning.
Treatment groups. We use an n of 15 animals per group. Vehicle only, VGB alone, or VGB and bumetanide. The doses are daily.
Histological and immunocytochemical methods. Using our published protocols for quantification of white matter myelination (29) we perform MBP staining. 16 μm coronal cryostat sections (Leica CM3050 S) were collected on Superfrost Plus slides. […]
Data analysis. Fluorescence images are obtained on a Zeiss Axioscope, using a Spot digital camera and Advanced 4.5 software (Diagnostic Instruments). […] ImageJ software is used to quantitate MBP and O4 immunostaining as a proportion of the white matter capsule area (29). This methodology was validated with ImageJ software quantitation of total area of MBP immunostaining within each 2.4 mm2 field. […]

Sprague Dawley rats = assay: rat model of vigabatrin (VGB)-induced retinal toxicity, histopathologic analysis of retina; details: for VGB-induced retinal toxicity: 30 days
Procedure: We closely follow the methods of Duboc, et al (12) that recommend 30 days of treatment in juvenile rats to induce a lesion.
Model of VGB-induced toxicity. VGB is administered to young adult/juvenile Sprague Dawley rats between 6-7 weeks of age for a period of 30 days. VGB is dissolved in 0.9% NaCl at 100 mg/mL and injected intraperitoneally (i.p.) daily for 30 days at doses of 5 and 3 mg/day as described for treatment of animal epilepsy (26).
Treatment groups. We use of 15 animals per group. […] The doses are daily.
Histopathologic analysis of retina. As per established protocols eye cups are fixed overnight at 4° C. in 4% (wt/vol) paraformaldehyde in phosphate buffered saline PBS) 0.01M, pH 7.4. After cryoprotection in PBS containing successively 10, 20, and 30% sucrose at 4° C., the tissue is embedded in OCT (Labonord, Villeneuve d'Ascq, France). A preliminary analysis of general retinal morphology is performed on vertical sections (8-10 μm thickness) using hematoxylin and eosin. Additional sections are permeabilized for 5 minutes in PBS containing 0.1% Triton X-100 (Sigma, St. Louis, Mo.), rinsed, and incubated in PBS containing 1% bovine serum albumin (Eurobio, Les-Ulis, France), 0.1% Tween 20 (Sigma), and 0.1% sodium azide (Merck, Fontenay-Ss-Bois) for 2 hours at room temperature. The primary antibody is added to the solution and incubated for 2 hours at room temperature. Antibodies were anti-GFAP rabbit polyclonal antibody (1:400; DAKO), and antiactive caspase-3 rabbit polyclonal antibody (1:100; Cell Signaling Technology, Beverly, Mass.). […] Cone photoreceptors are stained with peanut agglutinin lectin coupled to Texas Red (PNA, 1:40; Sigma). […] The dye, diamidiphenyl-indole (DAPI), is added to any incubation solution. Sections are mounted with Fluorsave reagent (Calbiochem, San Diego, Calif.). PNA-stained cone inner/outer segments are counted on retinal sections in eight consecutive 300 μm-wide optical windows on each side of the optic nerve under the 40× objective. Areas with a disorganized outer nuclear layer are specifically excluded from this count. Vertical sections are stained with hematoxylin and eosin.
Tissue Preparation for Electron Microscopy. […] The tissue is rinsed in cacodylate 0.15M and postfixed in 1% osmium tetroxide (Electron MicroscopySciences) for 1 hour. After dehydration in ethanol, and propylene oxide, the tissue is embedded in epon. Semithin sections are stained with methylene blue and ultrathin sections (80 nm) contrasted with lead citrate and uranyl acetate.
Data analysis. For quantification we use the same outcome measures of retinal injury as Duboc et al and Jammoul et al (12, 25). Vertical sections along the dorsoventral axis are selected at the optic nerve. After DAPI nuclear staining, the lengths of disorganized retinal areas are measured; GFAP immunostaining is used for detection and quantification of retinal areas with reactive gliosis. The cone photoreceptor density is calculated after cone arrestin immunostaining to visualize the inner/outer segments of cone photoreceptors; areas with disorganized retinal layering were excluded.

[1] = FDA not approvable action 1998; cited from earlier work
[2] = bumetanide higher dose (0.2 mg/kg)

CCCCNc1cc(C(=O)O)cc(S(N)(=O)=O)c1Oc1ccccc1 [bumetanide, Bumetanide]
suppression of NKCC1 in brain (NKCC1): effectively suppresses NKCC1 in brain | protection against VGB-induced white matter injury / IME (Sprague Dawley rat pups; higher dose of bumetanide (0.2 mg/kg) with VGB 50 mg/kg/day): additional efficacy | protection against VGB-induced white matter injury / IME (Sprague Dawley rat pups; lower dose of bumetanide (0.1 mg/kg/day i.p.) with VGB 50 mg/kg/day, PND 4-25): shows protective efficacy | VGB-induced retinal toxicity (Sprague Dawley rats; bumetanide 0.2 mg/kg dose with VGB): additional efficacy | adverse effects of diuresis (Sprague Dawley rats; [2]): no adverse effects of any modest diuresis | effects on body weight or skin turgor (Sprague Dawley rats; [2]): nor any significant effects on body weight or skin turgor | VGB-induced retinal toxicity (Sprague Dawley rats; lower dose of bumetanide 0.1 mg/kg i.p. daily with VGB 5 mg/day): significant decrease in toxicity

C=CC(N)CCC(=O)O (stereo not drawn) [vigabatrin, gamma-vinyl-GABA]
incidence of permanent vision loss [1]: 30% | vigabatrin toxicity in retina (histopathology) (Sprague Dawley rats; VGB i.p. daily for 30 days, juvenile rats): photoreceptor injury/loss and vacuolization
